Converted amounts (≈) assume the structure as drawn.
Assays:
[1] = system: Colletotrichum gleosporoides; assay: MTT cell viability assay for determination of IC50 for chemical fungicides; format: cell-based; settings: read-out: IC50 for C. gleosporoides
Method: (§1) Assays were carried out in 1.5 mL microcentrifuge tubes. The indicated fungicides were dissolved in DMSO at a stock concentration of 1 mg/mL. Enzymes were desalted into 50 mM MES buffer, pH 6.0 using a 200 mL Sephadex G25 column with 9.5 mL/min flowrate before adding to the germination assay. […] The reaction mixture without fungicide served as a negative inhibition control, and a reaction mixture containing 0.2 mg/mL mannase acid or 20 mg/mL M-PEG (1,2-propanediol) served as a positive inhibition control. The spore germination mixture was incubated at 27° C. for 3 days. At the end of the incubation period, 200 μL of 3-(4,5-dimethylthiazol-2-yl)-2,5-diphenyltetrazolium bromide (MTT) dye was added to the existing 400 μL of assay culture and was incubated for another 3 hr at 27° C. in the dark. The tubes were then centrifuged, and the supernatants were discarded. To the residue left in the tubes, 200 μL of DMSO was added to dissolve the formazan formed by the live fungal cells. The tubes were vortexed and centrifuged again. 100 μL of the supernatant from each tube was transferred into a separate well in a 96-well microtiter plate and absorbance was measured at 540 nm. Inhibition of fungal germination and growth by enzymes was determined relative to the uninhibited control for samples without chemical fungicide, and relative to the 50% inhibited cultures for samples containing each of the chemical fungicides tested.
(§2) Each fungicide was dissolved in DMSO at 1 mg/mL concentration, then added to the germination assay at final concentrations of 0, 0.01, 0.02, 0.04, 0.06, 0.08 mg/mL.

Fusarium verticilloides = assay: as above; format: cell-based; settings: for IC50: Fusarium, read-out: IC50 for F. verticilloides
Method: as §1, §2

Septoria nodorum = format: cell-based
Fusarium graminearum = format: cell-based
Fusarium virguliforme = format: cell-based

## OC(Cc1ccccc1Cl)(Cn1nc[nH]c1=S)C1(Cl)CC1 (centres unmarked) [Prothioconazole, prothioconazole]
[1]
  IC50: 13 µg/mL (≈ 37.8 µM)
Fusarium verticilloides
  IC50: 22 µg/mL (≈ 63.9 µM)

## CON=C(C(=O)OC)c1ccccc1CON=C(C)c1cccc(C(F)(F)F)c1 [Trifloxystrobin, trifloxystrobin]
[1]
  IC50: 18 µg/mL (≈ 44.1 µM)
Fusarium verticilloides
  IC50: 6 µg/mL (≈ 14.7 µM)

## catalase
Septoria nodorum
  EC50 Enzyme: 285 µg/mL
  IC50 plus chemistry: >500 µg/mL

## glucose oxidase
Septoria nodorum
  EC50 Enzyme: <1 µg/mL
  IC50 plus chemistry: <1 µg/mL
Botrytis cinerea
  EC50 Enzyme: <1 µg/mL
  IC50 plus chemistry: <1 µg/mL
Fusarium graminearum
  EC50 Enzyme: <1 µg/mL
  IC50 plus chemistry: <1 µg/mL
Fusarium virguliforme
  EC50 Enzyme: <1 µg/mL
  IC50 plus chemistry: <1 µg/mL

## lysozyme
Fusarium virguliforme
  EC50 Enzyme: >500 µg/mL
  IC50 plus chemistry: 2 µg/mL

## propineb [Antracol (Propineb)]
Fusarium verticilloides; 50% inhibition of germination and growth, fit IC50
  IC50 for F. verticilloides: ~300 µg/mL
